The record followed here is US20080051387A1, “TETRAHYDROPYRIDO[3,4-D]PYRIMIDINES AND RELATED ANALOGUES” (priority 2006, published 2008).

This assay deals with T1, chimeric human H3 receptor (Homo sapiens, UniProt Q9Y5N1).
T1 construct: rat Galpha-i2 (Gnai2, rat); made in house; host or cells: Sf9 insect cells (baculovirus); P2 membranes
The assay can be described thus: Chimeric human H3 receptor screening GTP binding assay (inhibition of histamine-stimulated GTP-gamma35S binding, Example 8). In kind it is biochemical. Conditions: symbol ! in Ki; test compound 4 μM, 1 μM histamine; read-out: percent inhibition of agonist-induced GTP-gammaS binding to H3. The gist of the method:
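Sf9 membranes co-expressing chimeric human H3 receptor and heterotrimeric G-protein (35 μg protein) incubated 60 min at room temperature with 4 μM compound, 1 μM histamine and 125 pM GTP-gamma35S in pH 7.4 buffer with 10 μM GDP. Filter-bound radioactivity, nonspecific (10 μM GTP-gammaS) subtracted, reported as % inhibition of histamine signal.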
On the technique in general: GTPγS resists hydrolysis and so accumulates on activated G proteins.

T1 sequence (Q9Y5N1 with tags, fused parts or gaps): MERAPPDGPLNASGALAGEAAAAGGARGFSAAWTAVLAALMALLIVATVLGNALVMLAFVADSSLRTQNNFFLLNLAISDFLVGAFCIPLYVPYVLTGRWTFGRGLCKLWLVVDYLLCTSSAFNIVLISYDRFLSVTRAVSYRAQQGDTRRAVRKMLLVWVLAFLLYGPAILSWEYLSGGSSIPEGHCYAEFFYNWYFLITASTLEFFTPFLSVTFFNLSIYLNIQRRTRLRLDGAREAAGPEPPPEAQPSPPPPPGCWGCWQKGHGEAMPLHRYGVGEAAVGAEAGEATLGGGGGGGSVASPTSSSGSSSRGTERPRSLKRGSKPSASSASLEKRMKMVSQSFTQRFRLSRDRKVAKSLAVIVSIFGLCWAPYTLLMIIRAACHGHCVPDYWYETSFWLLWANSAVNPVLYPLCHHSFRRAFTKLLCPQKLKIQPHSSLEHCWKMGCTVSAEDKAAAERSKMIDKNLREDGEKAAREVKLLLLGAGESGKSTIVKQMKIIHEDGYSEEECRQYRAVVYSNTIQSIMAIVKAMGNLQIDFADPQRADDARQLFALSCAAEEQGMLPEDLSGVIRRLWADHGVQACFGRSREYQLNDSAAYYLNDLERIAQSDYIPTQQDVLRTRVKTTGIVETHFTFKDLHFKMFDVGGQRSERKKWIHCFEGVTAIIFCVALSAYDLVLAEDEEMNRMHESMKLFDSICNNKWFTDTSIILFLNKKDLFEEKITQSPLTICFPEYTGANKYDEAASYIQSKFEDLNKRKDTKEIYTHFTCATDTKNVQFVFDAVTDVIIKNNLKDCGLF

Regarding `c1nc2c(c(N3CCN(C4CCC4)CC3)n1)CCN(Cc1ccc(N3CCCC3)nc1)C2` [Compound 96, 4-(4-cyclobutylpiperazin-1-yl)-7-[(6-pyrrolidin-1-ylpyridin-3-yl)methyl]-5,6,7,8-tetrahydropyrido[3,4-d]pyrimidine], the inhibition (in general, the percentage by which the read-out fell short of the control) at 4 µM is at least 90%.

`Cc1c(F)cccc1CN1CCc2c(ncnc2N2CCN(C3CCC3)CC2)C1` [Compound 97, 4-(4-cyclobutylpiperazin-1-yl)-7-(3-fluoro-2-methylbenzyl)-5,6,7,8-tetrahydropyrido[3,4-d]pyrimidine]: the inhibition at 4 µM was at least 90%.

Take `Clc1ccccc1CN1CCc2c(ncnc2N2CCN(C3CCC3)CC2)C1` [Compound 98, 7-(2-chlorobenzyl)-4-(4-cyclobutylpiperazin-1-yl)-5,6,7,8-tetrahydropyrido[3,4-d]pyrimidine]: the inhibition at 4 µM is at least 90%.

In the case of `Clc1ccc(CN2CCc3c(ncnc3N3CCN(C4CCC4)CC3)C2)c(Cl)c1` [Compound 99, 4-(4-cyclobutylpiperazin-1-yl)-7-(2,4-dichlorobenzyl)-5,6,7,8-tetrahydropyrido[3,4-d]pyrimidine], the inhibition at 4 µM is at least 90%.

For the compound `c1nc2c(c(N3CCN(C4CCC4)CC3)n1)CCN(Cc1ccc(N3CCCC3)cc1)C2` [Compound 100, 4-(4-cyclobutylpiperazin-1-yl)-7-(4-pyrrolidin-1-ylbenzyl)-5,6,7,8-tetrahydropyrido[3,4-d]pyrimidine], the inhibition at 4 µM is at least 90%.

With `CC(c1ccccc1)N1CCc2c(ncnc2N2CCN(C3CCC3)CC2)C1` (stereo not shown) [Compound 101, 4-(4-cyclobutylpiperazin-1-yl)-7-(1-phenylethyl)-5,6,7,8-tetrahydropyrido[3,4-d]pyrimidine], the inhibition at 4 µM was at least 90%.

Regarding `CC(c1ccccc1F)N1CCc2c(ncnc2N2CCN(C3CCC3)CC2)C1` (stereo not shown) [Compound 102, 4-(4-cyclobutylpiperazin-1-yl)-7-[1-(2-fluorophenyl)ethyl]-5,6,7,8-tetrahydropyrido[3,4-d]pyrimidine], the inhibition at 4 µM was at least 90%.

With `CC(c1cccc(F)c1)N1CCc2c(ncnc2N2CCN(C3CCC3)CC2)C1` (stereo not shown) [Compound 103, 4-(4-cyclobutylpiperazin-1-yl)-7-[1-(3-fluorophenyl)ethyl]-5,6,7,8-tetrahydropyrido[3,4-d]pyrimidine], the inhibition at 4 µM was at least 90%.

`CC(c1ccc(F)cc1)N1CCc2c(ncnc2N2CCN(C3CCC3)CC2)C1` (stereo not shown) [Compound 104, 4-(4-cyclobutylpiperazin-1-yl)-7-[1-(4-fluorophenyl)ethyl]-5,6,7,8-tetrahydropyrido[3,4-d]pyrimidine]: the inhibition at 4 µM is at least 90%.

`Cc1cccc(C(C)N2CCc3c(ncnc3N3CCN(C4CCC4)CC3)C2)c1` (stereo not shown) [Compound 105, 4-(4-cyclobutylpiperazin-1-yl)-7-[1-(3-methylphenyl)ethyl]-5,6,7,8-tetrahydropyrido[3,4-d]pyrimidine]: the inhibition at 4 µM is at least 90%.

`Cc1ccc(C(C)N2CCc3c(ncnc3N3CCN(C4CCC4)CC3)C2)cc1` (stereo not shown) [Compound 106, 4-(4-cyclobutylpiperazin-1-yl)-7-[1-(4-methylphenyl)ethyl]-5,6,7,8-tetrahydropyrido[3,4-d]pyrimidine]: the inhibition at 4 µM was at least 90%.

For the compound `CC(c1nccn1C)N1CCc2c(ncnc2N2CCN(C3CCC3)CC2)C1` (stereo not shown) [Compound 107, 4-(4-cyclobutylpiperazin-1-yl)-7-[1-(1-methyl-1H-imidazol-2-yl)ethyl]-5,6,7,8-tetrahydropyrido[3,4-d]pyrimidine], the inhibition at 4 µM was at least 90%.

In the case of `CC(c1ccnc2ccccc12)N1CCc2c(ncnc2N2CCN(C3CCC3)CC2)C1` (stereo not shown) [Compound 108, 4-(4-cyclobutylpiperazin-1-yl)-7-(1-quinolin-4-ylethyl)-5,6,7,8-tetrahydropyrido[3,4-d]pyrimidine], the inhibition at 4 µM is at least 90%.

As to `CC(c1cnc2ccccc2c1)N1CCc2c(ncnc2N2CCN(C3CCC3)CC2)C1` (stereo not shown) [Compound 109, 4-(4-cyclobutylpiperazin-1-yl)-7-(1-quinolin-3-ylethyl)-5,6,7,8-tetrahydropyrido[3,4-d]pyrimidine], the inhibition at 4 µM was at least 90%.

As to `Cc1cccc(C(C)N2CCc3c(ncnc3N3CCN(C4CCC4)CC3)C2)n1` (stereo not shown) [Compound 110, 4-(4-cyclobutylpiperazin-1-yl)-7-[1-(6-methylpyridin-2-yl)ethyl]-5,6,7,8-tetrahydropyrido[3,4-d]pyrimidine], the inhibition at 4 µM is at least 90%.

As to `CC(c1ccc(N2CCOCC2)nc1)N1CCc2c(ncnc2N2CCN(C3CCC3)CC2)C1` (stereo not shown) [Compound 111, 4-(4-cyclobutylpiperazin-1-yl)-7-[1-(6-morpholin-4-ylpyridin-3-yl)ethyl]-5,6,7,8-tetrahydropyrido[3,4-d]pyrimidine], the inhibition at 4 µM was at least 90%.

Consider `Cc1cc(C(C)N2CCc3c(ncnc3N3CCN(C4CCC4)CC3)C2)n(C)n1` (stereo not shown) [Compound 112, 4-(4-cyclobutylpiperazin-1-yl)-7-[1-(1,3-dimethyl-1H-pyrazol-5-yl)ethyl]-5,6,7,8-tetrahydropyrido[3,4-d]pyrimidine], for which the inhibition at 4 µM was at least 90%.

Turning to `COc1ccccc1C(C)N1CCc2c(ncnc2N2CCN(C3CCC3)CC2)C1` (stereo not shown) [Compound 113, 4-(4-cyclobutylpiperazin-1-yl)-7-[1-(2-methoxyphenyl)ethyl]-5,6,7,8-tetrahydropyrido[3,4-d]pyrimidine], the inhibition at 4 µM was at least 90%.

Consider `COc1ccc(C(C)N2CCc3c(ncnc3N3CCN(C4CCC4)CC3)C2)c(OC)c1` (stereo not shown) [Compound 114, 4-(4-cyclobutylpiperazin-1-yl)-7-[1-(2,4-dimethoxyphenyl)ethyl]-5,6,7,8-tetrahydropyrido[3,4-d]pyrimidine], for which the inhibition at 4 µM was at least 90%.

On to `CC(C)c1ccc(C(C)N2CCc3c(ncnc3N3CCN(C4CCC4)CC3)C2)cc1` (stereo not shown) [Compound 115, 4-(4-cyclobutylpiperazin-1-yl)-7-[1-(4-isopropylphenyl)ethyl]-5,6,7,8-tetrahydropyrido[3,4-d]pyrimidine], for which the inhibition at 4 µM was at least 90%.

As to `CC(C)CC(C)N1CCc2c(ncnc2N2CCN(C3CCC3)CC2)C1` (stereo not shown) [Compound 116, 4-(4-cyclobutylpiperazin-1-yl)-7-(1,3-dimethylbutyl)-5,6,7,8-tetrahydropyrido[3,4-d]pyrimidine], the inhibition at 4 µM is at least 90%.

In the case of `CCC(C)N1CCc2c(ncnc2N2CCN(C3CCC3)CC2)C1` (stereo not shown) [Compound 117, 7-sec-butyl-4-(4-cyclobutylpiperazin-1-yl)-5,6,7,8-tetrahydropyrido[3,4-d]pyrimidine], the inhibition at 4 µM is at least 90%.

For `CCCC(C)N1CCc2c(ncnc2N2CCN(C3CCC3)CC2)C1` (stereo not shown) [Compound 118, 4-(4-cyclobutylpiperazin-1-yl)-7-(1-methylbutyl)-5,6,7,8-tetrahydropyrido[3,4-d]pyrimidine], the inhibition at 4 µM is at least 90%.

As for `CCCCC(C)N1CCc2c(ncnc2N2CCN(C3CCC3)CC2)C1` (stereo not shown) [Compound 119, 4-(4-cyclobutylpiperazin-1-yl)-7-(1-methylpentyl)-5,6,7,8-tetrahydropyrido[3,4-d]pyrimidine], the inhibition at 4 µM was at least 90%.

As for `CCCCCC(C)N1CCc2c(ncnc2N2CCN(C3CCC3)CC2)C1` (stereo not shown) [Compound 120, 4-(4-cyclobutylpiperazin-1-yl)-7-(1-methylhexyl)-5,6,7,8-tetrahydropyrido[3,4-d]pyrimidine], the inhibition at 4 µM is at least 90%.

On to `CC(C)C(C)N1CCc2c(ncnc2N2CCN(C3CCC3)CC2)C1` (stereo not shown) [Compound 121, 4-(4-cyclobutylpiperazin-1-yl)-7-(1,2-dimethylpropyl)-5,6,7,8-tetrahydropyrido[3,4-d]pyrimidine], for which the inhibition at 4 µM is at least 90%.

With `CCC(C)C(C)N1CCc2c(ncnc2N2CCN(C3CCC3)CC2)C1` (stereo not shown) [Compound 122, 4-(4-cyclobutylpiperazin-1-yl)-7-(1,2-dimethylbutyl)-5,6,7,8-tetrahydropyrido[3,4-d]pyrimidine], the inhibition at 4 µM is at least 90%.

In the case of `CCC(CC)C(C)N1CCc2c(ncnc2N2CCN(C3CCC3)CC2)C1` (stereo not shown) [Compound 123, 4-(4-cyclobutylpiperazin-1-yl)-7-(2-ethyl-1-methylbutyl)-5,6,7,8-tetrahydropyrido[3,4-d]pyrimidine], the inhibition at 4 µM was at least 90%.

In the case of `CC(C1CC1)N1CCc2c(ncnc2N2CCN(C3CCC3)CC2)C1` (stereo not shown) [Compound 124, 4-(4-cyclobutylpiperazin-1-yl)-7-(1-cyclopropylethyl)-5,6,7,8-tetrahydropyrido[3,4-d]pyrimidine], the inhibition at 4 µM was at least 90%.

As to `CCCC(C)C(C)N1CCc2c(ncnc2N2CCN(C3CCC3)CC2)C1` (stereo not shown) [Compound 125, 4-(4-cyclobutylpiperazin-1-yl)-7-(1,2-dimethylpentyl)-5,6,7,8-tetrahydropyrido[3,4-d]pyrimidine], the inhibition at 4 µM was at least 90%.

For the compound `CC(C1CCCCC1)N1CCc2c(ncnc2N2CCN(C3CCC3)CC2)C1` (stereo not shown) [Compound 126, 4-(4-cyclobutylpiperazin-1-yl)-7-(1-cyclohexylethyl)-5,6,7,8-tetrahydropyrido[3,4-d]pyrimidine], the inhibition at 4 µM is at least 90%.

For the compound `CC(C1CCOC1)N1CCc2c(ncnc2N2CCN(C3CCC3)CC2)C1` (stereo not shown) [Compound 127, 4-(4-cyclobutylpiperazin-1-yl)-7-[1-(tetrahydrofuran-3-yl)ethyl]-5,6,7,8-tetrahydropyrido[3,4-d]pyrimidine], the inhibition at 4 µM is at least 90%.

On to `Cc1ccc(C(C)N2CCc3c(ncnc3N3CCN(C4CCC4)CC3)C2)cc1C` (stereo not shown) [Compound 128, 4-(4-cyclobutylpiperazin-1-yl)-7-[1-(3,4-dimethylphenyl)ethyl]-5,6,7,8-tetrahydropyrido[3,4-d]pyrimidine], for which the inhibition at 4 µM was at least 90%.

With `CC(c1ccc2c(c1)OCCO2)N1CCc2c(ncnc2N2CCN(C3CCC3)CC2)C1` (stereo not shown) [Compound 129, 4-(4-cyclobutylpiperazin-1-yl)-7-[1-(2,3-dihydro-1,4-benzodioxin-6-yl)ethyl]-5,6,7,8-tetrahydropyrido[3,4-d]pyrimidine], the inhibition at 4 µM was at least 90%.
